In ChEMBL document CHEMBL2069250, “Indole-2-carboxamides as allosteric modulators of the cannabinoid CB₁ receptor” (J Med Chem, 2012):

What was measured:
Format in all cases: cell-based
Cannabinoid receptor 1 [1] = target: T1, Cannabinoid receptor 1 (Homo sapiens, UniProt P21554); assay: Allosteric modulation of human recombinant CB1 receptor expressed in HEK293 cells assessed as inhibition of [3H]CP55940 binding at 25 uM
Cannabinoid receptor 2 [2] = target: T2, Cannabinoid receptor 2 (Homo sapiens, UniProt P34972); assay: Allosteric modulation of human recombinant CB2 receptor expressed in HEK293 cells assessed as inhibition of [3H]CP55940 binding
Cannabinoid receptor 1 [3] = target: T1, Cannabinoid receptor 1; assay: Allosteric modulation of human recombinant CB1 receptor expressed in HEK293 cells assessed as inhibition of [3H]CP55940 binding
Cannabinoid receptor 2 [4] = target: T2, Cannabinoid receptor 2; assay: Allosteric modulation of human recombinant CB2 receptor expressed in HEK293 cells assessed as inhibition of [3H]CP55940 binding at 10 uM
Cannabinoid receptor 1 [5] = target: T1, Cannabinoid receptor 1; assay: Allosteric modulation of human recombinant CB1 receptor expressed in HEK293 cells assessed as stimulation of [3H]CP55940 binding
Cannabinoid receptor 1 [6] = target: T1, Cannabinoid receptor 1; assay: Allosteric modulation of human recombinant CB1 receptor expressed in HEK293 cells assessed as stimulation of [3H]CP55940 binding at 10 uM
Cannabinoid receptor 1 [7] = target: T1, Cannabinoid receptor 1; assay: Allosteric modulation of human recombinant CB1 receptor expressed in HEK293 cells assessed as inhibitor of [3H]CP55940 binding at 10 uM
Cannabinoid receptor 2 [8] = target: T2, Cannabinoid receptor 2; assay: Allosteric modulation of human recombinant CB2 receptor expressed in HEK293 cells assessed as stimulation of [3H]CP55940 binding
Cannabinoid receptor 2 [9] = target: T2, Cannabinoid receptor 2; assay: Allosteric modulation of human recombinant CB2 receptor expressed in HEK293 cells assessed as stimulation of [3H]CP55940 binding at 10 uM

T2 sequence (P34972 whole entry): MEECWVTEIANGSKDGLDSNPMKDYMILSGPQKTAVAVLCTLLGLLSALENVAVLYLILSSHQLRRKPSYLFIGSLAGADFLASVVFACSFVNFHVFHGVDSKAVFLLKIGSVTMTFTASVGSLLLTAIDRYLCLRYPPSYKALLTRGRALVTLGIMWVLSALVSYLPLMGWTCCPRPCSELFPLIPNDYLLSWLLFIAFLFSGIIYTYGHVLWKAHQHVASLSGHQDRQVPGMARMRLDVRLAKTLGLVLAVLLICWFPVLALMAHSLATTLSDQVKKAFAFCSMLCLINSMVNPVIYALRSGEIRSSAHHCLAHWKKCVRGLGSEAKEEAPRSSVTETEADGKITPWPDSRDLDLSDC
T1 sequence (P21554 whole entry): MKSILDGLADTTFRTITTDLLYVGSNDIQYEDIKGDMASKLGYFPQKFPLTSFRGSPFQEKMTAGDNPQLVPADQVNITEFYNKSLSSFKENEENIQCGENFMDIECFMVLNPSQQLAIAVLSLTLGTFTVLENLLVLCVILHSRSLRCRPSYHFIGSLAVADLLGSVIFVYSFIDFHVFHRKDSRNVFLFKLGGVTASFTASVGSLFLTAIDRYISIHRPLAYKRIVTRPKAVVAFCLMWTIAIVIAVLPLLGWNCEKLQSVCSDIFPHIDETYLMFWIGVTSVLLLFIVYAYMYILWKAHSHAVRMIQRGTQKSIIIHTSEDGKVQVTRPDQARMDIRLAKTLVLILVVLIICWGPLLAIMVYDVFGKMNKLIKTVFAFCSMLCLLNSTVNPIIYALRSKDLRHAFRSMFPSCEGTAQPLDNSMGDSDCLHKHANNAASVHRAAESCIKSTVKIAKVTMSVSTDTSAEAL

SMILES	inhibition (Cannabinoid receptor 1 [1]) [%]	IC50 (Cannabinoid receptor 2 [2]) [µM]	IC50 (Cannabinoid receptor 1 [3]) [µM]	inhibition (Cannabinoid receptor 2 [4]) [%]	EC50 (Cannabinoid receptor 1 [5]) [µM]	Activity (Cannabinoid receptor 1 [6]) [%]	inhibition (Cannabinoid receptor 1 [7]) [%]	EC50 (Cannabinoid receptor 2 [8]) [µM]	Activity (Cannabinoid receptor 2 [9]) [%]
CC(=O)c1c(C(=O)NCCc2ccc(N3CCCCC3)cc2)[nH]c2ccc(Cl)cc12	19.9	> 10	> 10	7.9	–	–	–	–	–
CCc1c(C(=O)NCCc2ccc(N3CCCCC3)cc2)[nH]c2ccc(Cl)cc12	–	> 10	–	20.6	0.14	244	–	–	–
O=C(NCCc1ccc([N+](=O)[O-])cc1)c1cc2cc(Cl)ccc2[nH]1	–	> 10	–	32.7	> 10	141	–	–	–
CCc1c(C(=O)NCCc2ccc(N)cc2)[nH]c2ccc(Cl)cc12	–	> 10	–	31.1	> 10	145	–	–	–
CCc1c(C(=O)OCCc2ccc(N(C)C)cc2)[nH]c2ccc(Cl)cc12	–	5.57	> 10	65.7	–	–	19.6	–	–
CCc1c(C(=O)NCCc2ccc(N3CCCC3)cc2)[nH]c2ccc(Cl)cc12	–	–	–	–	> 10	134	–	> 10	135
CCc1c(C(=O)NCCc2ccc(F)cc2)[nH]c2ccc(Cl)cc12	–	> 10	–	37.7	> 10	112	–	–	–
CCc1c(C(=O)NCCc2ccc(Cl)cc2)[nH]c2ccc(Cl)cc12	–	> 10	–	48.9	0.76	179	–	–	–
CCc1c(C(=O)OCCc2ccc([N+](=O)[O-])cc2)[nH]c2ccc(Cl)cc12	–	> 10	> 10	16.8	–	–	24.7	–	–
Cc1c(C(=O)NCCc2ccc(N3CCCCC3)cc2)[nH]c2ccc(Cl)cc12	–	–	–	–	0.23	243	–	> 10	111
CCc1c(C(=O)NCCc2ccc(NC)cc2)[nH]c2ccc(Cl)cc12	–	9.13	–	55.7	0.96	183	–	–	–
O=C(NCCc1ccc(N2CCCCC2)cc1)c1cc2cc(Cl)ccc2[nH]1	–	> 10	–	37.9	0.09	207	–	–	–
CCc1c(C(=O)NCCc2ccc(N3CCCCC3)cc2)[nH]c2ccccc12	–	8.97	–	55.2	0.81	244	–	–	–
O=C(NCCc1ccc(Cl)cc1)c1cc2cc(Cl)ccc2[nH]1	–	> 10	–	11.1	> 10	115	–	–	–
CN(C)c1ccc(CCNC(=O)c2cc3cc(Cl)ccc3[nH]2)cc1	–	> 10	–	42.1	1.53	171	–	–	–
CNc1ccc(CCNC(=O)c2cc3cc(Cl)ccc3[nH]2)cc1	–	> 10	> 10	43.7	–	–	3.8	–	–
CCc1c(C(=O)NCCc2ccc([N+](=O)[O-])cc2)[nH]c2ccc(Cl)cc12	–	> 10	–	0	0.36	242	–	–	–
CCc1c(C(=O)NCCc2ccc(N(C)C)cc2)[nH]c2ccc(Cl)cc12	–	> 10	–	22.8	0.05	227	–	–	–
CCc1c(C(=O)OCCc2ccc(N3CCCCC3)cc2)[nH]c2ccc(Cl)cc12	–	8.26	> 10	52.7	–	–	18	–	–
CC(O)c1c(C(=O)NCCc2ccc(N3CCCCC3)cc2)[nH]c2ccc(Cl)cc12 (racemic)	–	> 10	–	33.1	8.45	180	–	–	–
CCc1c(C(=O)NCCc2ccc(N3CCN(C)CC3)cc2)[nH]c2ccc(Cl)cc12	–	6.97	–	66.7	> 10	132	–	–	–
CCc1c(C(=O)NCCc2ccc(C)cc2)[nH]c2ccc(Cl)cc12	–	> 10	–	29	0.55	189	–	–	–
Nc1ccc(CCNC(=O)c2cc3cc(Cl)ccc3[nH]2)cc1	–	> 10	> 10	37.7	–	–	3.6	–	–
